Experimental data as given in patent publication US20210282401A1, “FUNGICIDAL COMPOUNDS AND MIXTURES FOR FUNGAL CONTROL IN CEREALS” (Dow AgroSciences LLC, priority 2016, published 2021).

Experiments:
Type in all cases: in vivo
[1] = tested on: Puccinia striiformis (PUCCST); assay: Field assessment of yellow rust of wheat (PUCCST), relative AUDPC, 2 field trials; conditions: based on AUDPC
Text: (§1) Treatments consisting of the compound of Formula I and the fungicide picoxystrobin were applied either using individually or as a two-way mixture with the compound of Formula I. The compound of Formula I was applied with Agnique BP-420 (50% w/w at 0.3% v/v) at 75 and 150 g ai/ha and picoxystrobin (Acanto) was applied at 125 and 200 g ai/ha. The commercial standard used in the studies was Fluxapyroxad (Imtrex) and was applied at 100 g ai/ha.
Field Assessment of Puccinia striiformis (PUCCST) in Wheat:
Fungicidal treatments containing the compound of Formula I and picoxystrobin, either individually or as a two way mixture, were assessed against yellow rust of wheat (PUCCST) in two separate field trials. […]
Disease severity (percentage of visual diseased foliage on whole plot or leaves) in both field trials was assessed at 4-7 weeks after application and was recorded following EPPO PP1/26 guideline prescriptions. Area under the disease progress curve (AUDPC) was calculated for each plot in both trials using the sets of recorded severity data. Relative AUDPC (% control based on AUDPC) was calculated as percent of the nontreated control. Final results for the control of yellow rust of wheat by the compound of Formula I, picoxystrobin, and mixtures are reported as an average of the relative AUDPC calculated over both field trials. […]

[2] = tested on: Puccinia recondita (PUCCRT); assay: Field assessment of brown rust of wheat (PUCCRT), relative AUDPC, 2 field trials; conditions: based on AUDPC
Text: as §1
Field Assessment of Puccinia recondita (PUCCRT) in Wheat:
Fungicidal treatment containing the compound of Formula I and picoxystrobin, either individually or as a two mixture, were assessed against brown rust of wheat (PUCCRT) in two separate field trials. In the first trial, fungicidal treatments were applied at B37-39 (protectant, approximately 0% infection at application) growth stage of wheat (TRZAW, MV Vanek variety) under natural infection of brown rust. The treatment was part of an experimental trial designed as a randomized complete block with four replications and a plot of approximately 2×3 m. Fungicidal treatments were applied at a water volume of 200 L/ha, using a backpack plot sprayer with a TEEJET QJ90-2XTT110 015 Nozzle.
In the second trial, fungicidal treatments containing the compound of Formula I and picoxystrobin, either individually or as a two way mixture, were applied at B33 (curative, approximately 6.6% infection at application) growth stage of wheat (TRZAW, Miradoux variety) under natural infection of brown rust. The treatments were part of an experimental trial designed as a randomized complete block with four replications and a plot of approximately 2×3 m. Fungicidal treatments were applied at a water volume of 200 L/ha, using a backpack plot sprayer with a HARDI MD110-02 Nozzle.
Disease severity (percentage of visual diseased foliage on whole plot or leaves) in both field trials was assessed at 5 weeks after application and was recorded following EPPO PP1/26 guideline prescriptions. Area under the disease progress curve (AUDPC) was calculated for each plot in both trials using the sets of recorded severity data. Relative AUDPC (% control based on AUDPC) was calculated as percent of the nontreated control. Final results for the control of brown rust of wheat by the compound of Formula I, picoxystrobin, and mixtures are reported as an average of the relative AUDPC calculated over both field trials. Statistical analysis was done according to ANOVA and Tukey's test (p=0.10).

[3] = tested on: Rhynchosporium secalis (RHYNSE); assay: Field assessment of scald of barley (RHYNSE), trials 2 and 3, relative AUDPC; conditions: Trial 2, 3, based on AUDPC
Text: (§2) Field Assessment of Mixtures of the Compound of Formula I and Pyraclostrobin on Rhynchosporium secalis (RHYNSE) in Barley:
In the remaining trials, treatments consisting of the compound of Formula I and the fungicide pyraclostrobin were applied either using individually or as a two-way mixture with the compound of Formula I. […] Commercial standards used in these studies were SiltraXpro (200 g ai/L prothioconazole+60 g ai/ha bixafen) applied at 260 g ai/ha, and Opera (133 g/L pyraclostrobin+50 g/L epoxiconazole) applied at 220 g ai/ha. All treatments were part of an experimental trial designed as a randomized complete block with four replications.
(§3) Disease severity (percentage of visual diseased foliage on whole plot or leaves) in both trials was recorded following EPPO PP1/26 guideline prescriptions. Area under the disease progress curve (AUDPC) was calculated for each plot in both trials using the sets of recorded severity data. Relative AUDPC (% control based on AUDPC) was calculated as percent of the nontreated control. Final results for the control of scald of barley by the compound of Formula I, pyraclostrobin and mixtures are reported as an average of the relative AUDPC calculated over both field trials. Statistical analysis was done according to ANOVA and Tukey's test (p=0.10).

Puccinia hordei (PUCCHD) = assay: Field assessment of rust of barley (PUCCHD), relative AUDPC, 2 field trials; conditions: based on AUDPC
Text: Treatments consisting of the compound of Formula I and the fungicide pyraclostrobin were applied either using individually or as a two-way mixture with the compound of Formula I. The compound of Formula I was applied with Agnique BP-420 (50% w/w at an active:adjuvant ratio of 1:2) at 75, 100 and 150 g ai/ha and with pyraclostrobin (Comet 200) at 100, 150 and 200 g ai/ha. Commercial standards used in these studies were Proline 275 (275 g ai/L Prothioconazole), applied at 150 g ai/ha, and SiltraXpro (200 g ai/L prothioconazole+60 g ai/ha bixafen), applied at 195 g ai/ha.
Field Assessment of Mixtures of the Compound of Formula I and Pyraclostrobin on Puccinia Hordie (PUCCHD) in Barley: […]
Fungicidal treatments containing the compound of Formula I and pyraclostrobin, either individually or as a two-way mixture, were assessed against rust of barley (PUCCHD) in two separate field trials. In both trials, fungicidal treatments were applied at B37-39 growth stages of winter barley (Lomeritt variety) under natural infection of barley rust. All treatments were part of an experimental trial designed as a randomized complete block with four replications.
as §3, with “in both field trials was” for “in both trials was”, “control of rust of barley” for “control of scald of barley”

[4] = tested on: Pyrenophora teres (PYRNTE); assay: Field assessment of net blotch of barley (PYRNTE), relative AUDPC; conditions: based on AUDPC
Text: (§4) Commercial standards used in these studies were Proline 275 (275 g ai/L Prothioconazole), applied at 150 g ai/ha, and SiltraXpro (200 g ai/L prothioconazole+60 g ai/ha bixafen), applied at 195 g ai/ha.
Field Assessment of Mixtures of the Compound of Formula I and Pyraclostrobin on Pyrenophora teres (PYRNTE) in Barley:
[…] […], fungicidal treatments were applied at B31-37 growth stages of winter barley and sprong barley (HORVW, Lomeritt variety; HORVS, Scarlett variety) under natural infection of net blotch (protectant tests, 1% infection on leaf 4 and 10% infection on leaf 6 at application). All treatments were part of an experimental trial designed as a randomized complete block with four replications.
[…] […] Relative AUDPC (% control based on AUDPC) was calculated as percent of the nontreated control. […] Statistical analysis was done according to ANOVA and Tukey's test (p=0.10).

[5] = tested on: Rhynchosporium secalis (RHYNSE); assay: Field assessment of scald of barley (RHYNSE), trial 1, relative AUDPC; conditions: Trial 1, based on AUDPC
Method: as §4, §2
Fungicidal treatments containing the compound of Formula I and fluxapyroxad, either individually or as a two-way mixture, were assessed against scald of barley (RHYNSE) in three field trials. In the first trial, fungicidal treatments were applied at B37-39 growth stages of winter barley (HORVW, Maris Otter variety) under natural infection of barley scald (protectant test, approximately 1% infection on leaf 4 at application). All treatments were part of an experimental trial designed as a randomized complete block with four replications.
Disease severity (percentage of visual diseased foliage on whole plot or leaves) in the first trial was recorded following EPPO PP1/26 guideline prescriptions. Area under the disease progress curve (AUDPC) was calculated for each plot in the trial using the sets of recorded severity data. Relative AUDPC (% control based on AUDPC) was calculated as percent of the nontreated control. […] Statistical analysis was done according to ANOVA and Tukey's test (p=0.10).

CO/C=C(/C(=O)OC)c1ccccc1COc1cccc(C(F)(F)F)n1 [Picoxystrobin, methyl (E)-3-methoxy-2-[2-(6-trifluoromethyl-2-pyridyloxymethyl)phenyl]acrylate]
PUCCST % Control ([1]; 125 g ai/ha): 34.6%
PUCCST % Control ([1]; 200 g ai/ha): 43.2%
PUCCRT % Control ([2]; 125 g ai/ha): 64.6%
PUCCRT % Control ([2]; 200 g ai/ha): 81.1%

N#Cc1ccc(Oc2ccc(C(F)(F)C(O)(Cn3ncnc3S)c3ccc(F)cc3F)nc2)cc1 (stereo not drawn) [Compound I, 4-((6-(2-(2,4-difluorophenyl)-1,1-difluoro-2-hydroxy-3-(5-mercapto-1H-1,2,4-triazol-1-yl)propyl)pyridin-3-yl)oxy)benzonitrile]
RHYNSE % Control ([3]; 80 g ai/ha): 15.6%
RHYNSE % Control ([3]; 125 g ai/ha): 38.6%
PUCCRT % Control ([2]; 75 g ai/ha): 90.7%
PUCCRT % Control ([2]; 150 g ai/ha): 91.4%

COC(=O)N(OC)c1ccccc1COc1ccn(-c2ccc(Cl)cc2)n1 [Pyraclostrobin, methyl N-[2-[[[1-(4-chlorophenyl)-1H-pyrazol-3-yl]oxy]methyl]phenyl]-N-methoxycarbamate]
PUCCHD % Control (Puccinia hordei (PUCCHD); 100 g ai/ha): 63.3%
PUCCHD % Control (Puccinia hordei (PUCCHD); 150 g ai/ha): 64.4%
PUCCHD % Control (Puccinia hordei (PUCCHD); 200 g ai/ha): 78.7%
PYRNTE % Control ([4]; 100 g ai/ha): 46.5%
PYRNTE % Control ([4]; 150 g ai/ha): 60.5%
PYRNTE % Control ([4]; 200 g ai/ha): 69.8%
RHYNSE % Control ([5]; 100 g ai/ha): 41.2%
RHYNSE % Control ([5]; 150 g ai/ha): 45.0%
RHYNSE % Control ([5]; 200 g ai/ha): 47.8%
RHYNSE % Control ([3]; 200 g ai/ha): 43.0%
